From patent US20090142715A1, “LAMINATED RESIST USED FOR IMMERSION LITHOGRAPHY” (DAIKIN INDUSTRIES LTD., priority 2004, published 2009) come the findings set out here.

Read-outs that look alike come from different tables or passages of the source.

The series is described as follows: Measurement of pKa value of monomer having hydrophilic functional group Y by NaOH titration. Type of series: physicochemical. Particulars: titration in water/acetone with NaOH, corrected by blank. The procedure:
The method of measuring and calculating a pKa value is mentioned below using 1,1-bistrifluoromethyl-3-buten-1-ol:
In a water/acetone solution of 10/15 ml was poured 0.7865 g of CH2═CHCH2C(CF3)2OH, followed by stirring at room temperature. After it was confirmed that the solution was homogeneous, titration was carried out with 0.2 mole/L NaOH solution. A titration curve was obtained by adding the NaOH solution dropwise in increments of 0.15 ml and recording a pH value at every addition. An equivalence point was determined by an inflection point (maximum differential value of titration curve=dpH/dml) of the titration curve. In this case, the equivalence point was 14.5 ml. […] From a titration curve of water/acetone solution and aqueous solution which had been measured previously as a blank solution, a difference in a pH value derived from an electric potential difference between the solutions at titration of 7.25 ml was 1.29.
In the case of titration of 1.0865 g of CH2═CHCH2C(CF3)2OH by the same procedures as above, an equivalence point was 20.15 ml and a half of the equivalence point was 10.08 ml. A pH value at a half of the equivalence point was 10.78.
When the same procedures as above were carried out by changing the titration solution to about 0.05 mole/L NaOH, an equivalence point of 0.115 g of CH2═CHCH2C(CF3)2OH was 8.00 ml and a half of the equivalence point was 4.00 ml. A pH value at this time was 10.92.
With respect to the various fluorine-containing ethylenic monomers having OH group shown in Table 2, a pKa value was measured by the same procedures as above.

The mark [1] stands for this setting: water/acetone solution, read-out: pKa.

`O=C(O)C1(F)CC2C=CC1C2` (centres unmarked): the pKa (commonly the negative logarithm of the acid dissociation constant) under setting [1] turned out to be 3.8. For “1,1,9,9-tetrahydro-2,5-bistrifluoromethyl-3,6-dioxa-8-nonenol”, the pKa amounted to 12.6. On to `C=CCC(O)(C(F)(F)F)C(F)(F)F` [1,1-bistrifluoromethyl-3-buten-1-ol], for which the pKa is recorded as 9.6. `C=C(F)C(=O)O` [CH2═CF—COOH, α-fluoroacrylic acid]: the pKa under setting [1] is 3.4. Compound `C=C(F)C(F)(F)OC(F)(C(F)(F)F)C(F)(F)OC(F)(C(=O)O)C(F)(F)F` (centres unmarked) [perfluoro-(9,9-dihydro-2,5-bistrifluoromethyl-3,6-dioxa-8-nonenoic acid)] had a pKa of 3.6.
